The record followed here is patent publication US5021439A, “Cerebral function ameliorating agents related to Tan-950 A” (priority 1988, dated 1991).

Like-named read-outs stand apart in the source and are kept apart here.

One series deals with NMDA-type receptor. The experiment in a line: Binding assay of NMDA-type receptor (3H-CPP) on rat forebrain crude synaptic membrane. The conditions noted are these: for IC50: 10 nM 3H-CPP, pH 7.1, 0° C., 15 min, read-out: Affinity to NMDA-type receptor (3H-CPP), IC50. The text has this:
(§1) The receptors of the exitatory amino acid (especially, glutamate) are classified into NMDA type, Quisqualate type and Kainate type. 3H-CPP [3-(2-carboxypiperazin-4-yl)propyl-1-[…]] as the ligand (a radio active substance which has high affinity for the receptor) for the NMDA-type-receptor, ^3 H-AMPA (DL-α-amino-3-hydroxy-5-methylisoxazole-4-propionic acid) as the ligand for the quisqualate-type-receptor, and ^3 H-kainic acid as the ligand for the kainate-type-receptor were used respectively. A sample of the crude synaptic membrane prepared from the forebrain of rat was washed 4 times by Tris hydrochloric acid buffer (pH 7.1) and kept in a freezing condition at -20° C. until its use.
(§2) Samples of the frozen crude synaptic membrane were melted and, after floating on 50 mM Tris hydrochloric acid buffer (pH 7.1), incubated for 30 minutes at 37° C. After the incubation, the synaptic membrane was centrifuged (48,000×g) and washed 3 times with 50 mM Tris hydrochloric acid buffer and used in the test.
(§3) In the binding assay of the NMDA-type-receptor, samples of the synaptic membrane were incubated in the presence or absence of a test compound together with 10 nM ^3 H-CPP in 50 mM Tris hydrochloric acid buffer (pH 7.1, 0° C.) for 15 minutes. The sediment (pellet) containing synapse membrane which was recovered by centrifugation of the incubation solution was rinsed with 50 mM Tris hydrochloric acid buffer (pH 7.1) and dissolved in 0.5 ml of Protosol® (made by New England Nuclear Inc.). In the binding assay of Quisqualate-type-receptor and Kainate-type-receptor, samples of the synapse was incubated in the presence or absence of a test compound in 5 nM ^3 H-AMPA (Quisqualate-type-receptor) or 2 nM ^3 H-Kainic acid (Kainate-type-receptor) together with 50 mM Tris hydrochloric acid buffer (pH 7.1, 0° C.) for 90 minutes. The solution was filtered with Whatman GF/B filter (Whatman®, made by Whatman Inc.) under reduced pressure and the filter was washed 3 times with 50 mM Tris hydrochloric acid buffer. The radioactivity on the filter was measured by a conventional method. The specific binding amount was determined by subtracting the non-specific binding from the total binding, taking the binding in the presence of an excessive non-radioactive L-sodium glutamate (1 mM) as the amount of the non-specfic binding, i.e., the binding to anything other than the receptor. The 50% inhibiting concentration (IC50) of the compound to be tested was determined as the concentration which inhibits 50% of the specific receptor binding of ^3 H-CPP, ^3 H-AMPA or ^3 H-kainic acid.

In series [1] the target is Quisqualate-type receptor. The experiment in a line: Binding assay of Quisqualate-type receptor (3H-AMPA) on rat forebrain crude synaptic membrane. The following applies: for IC50: 5 nM 3H-AMPA, pH 7.1, 0° C., 90 min, read-out: Affinity to Quisqulate-type receptor (3H-AMPA), IC50; for Affinity to the Quisqualate-type-receptor (in words): summary of Table 5.
Source text: as §1, §2
as §3, with “receptor.” for “receptor. The 50% inhibiting concentration (IC50) of the compound to be tested was determined as the concentration which inhibits 50% of the specific receptor binding of ^3 H-CPP, ^3 H-AMPA or ^3 H-kainic acid.”

A further series has as its target Kainate-type receptor. The experiment in a line: Binding assay of Kainate-type receptor (3H-kainic acid) on rat forebrain crude synaptic membrane. The following applies: for Affinity to Kainate-type receptor (3H-KA), IC50: 2 nM 3H-Kainic acid, pH 7.1, 0° C., 90 min; for Affinity to the Kainate-type-receptor (in words): summary of Table 5.
Source text: as §1, §2
as §3, with “receptor.” for “receptor. The 50% inhibiting concentration (IC50) of the compound to be tested was determined as the concentration which inhibits 50% of the specific receptor binding of ^3 H-CPP, ^3 H-AMPA or ^3 H-kainic acid.”

Series [2] relates to glutamate receptor (NMDA type, Quisqualate type and Kainate type). The experiment in a line: Affinity for the glutamate receptors of the brain, 3 sub-types taken together. The conditions noted are these: summary of Table 5. It is filed as binding, rat.
Source text: as §1, §2, §3

Series [3] has as its system neurons of rat hippocampus. The experiment in a line: Excitatory action on neurons of rat hippocampus in vitro (CA1 spike recording in slices). The following applies: rat hippocampal slices, CA1 pyramidal cell layer, Krebs-Ringer solution 33° C., read-out: Minimum effective concentration to induce firing of hippocampus nervous cell. The class given is cell-based. How it is done:
Male Wister rats (body weight: 300 -350 g) were used in the test. After cutting the head of rats, the brain was quickly taken out and […] thickness of the sliced samples of a hippocampus was prepared by a slice cutter. These samples were incubated in a nutrient solution (Krebs-Ringer solution, 33° C.) saturated with a mixed gas of 95% of oxygen gas and 5% of carbon dioxide gas for one or more hours. The test was carried out in the perfusion cisterna with perfusing at the flow speed of 1.5 ml/min. The action potential (spike) in CA1 pyramidal cell layer of the hippocampus was recorded extracellularlly by using a glass electrode filled with 2M NaCl solution. The test compounds were added to the perfusate and the change in number of the spikes with passage of time was counted by a pulse counter and recorded on the recorder. The Krebs-Ringer's solution contains 124 mM of NaCl, 5 mM of KCl, 1.24 mM of KH2 PO4, 1.3 mM of MgSO4, 2.4 mM of CaCL2, 26 mM of […] and 10 mM of glucose.

Series [4] concerns Memory Dysfunction Induced by Cycloheximide Administration. The experiment in a line: Improvement of cycloheximide-induced memory dysfunction, passive avoidance in mice. The following applies: for Tested Retention Time (percentage to control group), latency: i.p., twice, 30 min before acquisition and before retention test, memory impairment group = 100; for Effect on memory dysfunction / latency (in words): mouse, in vivo. It is filed as in vivo, C57BL/b mice. How it is done:
Experimental memory disturbance was induced by administering a protein synthesis inhibiting agent, cycloheximide to C57BL/b male mice of 5 week-age. The memory test was carried out using a passive avoidance learning equipment consisting of two chambers of dark and bright. At first, a memory acquisition process of mice was carried out. In this process, a mouse was released in the bright chamber and the guillotine type door connecting between bright and dark chambers was open. Immediately after the mouse that likes a dark place having entered into the dark chamber, said guillotine type door was closed and an electric shock of 0.4 mA was given to the mouse for 3 seconds through the floor grid. Mice learned through this process to receive electric shock from the floor once they move to the dark chamber. However, the memory formation in mice that received cycloheximide (60 mg/Kg) subcutaneously 30 minutes before this memory acquisition process becomes insufficient. The memory retention test was carried out in accordance with similar procedures with mice which received cycloheximide (memory dysfunction group) and normal mice on the next day that the memory acquisition process was carried out. A time from the release of mice in the bright chamber to the entry into the dark chamber through the guillotine type door opened was measured (latency). The latency was shorter in the memory dysfunction group and the effectiveness of the compounds was determined in terms of a degree of the prolongation of latency. The test compounds were intraperitoneally administered twice in total to the mice each 30 minutes before the memory acquisition process and the memory keeping test.
The effect of the compounds in improving a memory dysfunction was expressed as a percentage in which the latency in the memory impairment group at the memory retention test was regarded as 100, and the results are shown in Table 7.

A further series is described as follows: Acute toxicity in mouse. The conditions noted are these: in vivo, any administration routes (iv, ip, sc, po).
Series [5] in a line: Conversion of each component of TAN-950 in aqueous solution (HPLC). It is filed as physicochemical. The conditions noted are these: 60° C.
Source text: The mixture of TAN-950A - E was applied to HPLC in order to isolate each component thereof and each component was isolated as approximately single peak compound.
The nature of another series: Solubility. The class given is physicochemical.
[6] abbreviates: starting material heated in aqueous solution, 1 hour.

Usually IC50 stands for the point on the concentration scale where inhibition reaches its midpoint. As to `Cc1[nH]oc(=O)c1C[C@H](N)C(=O)O` [Compound 75], the IC50 at NMDA-type receptor stood at 11 µM. Further, in series [1], the IC50 is 0.31 µM and the “Affinity to the Quisqualate-type-receptor (in words)” value is on record as “strong affinity”. Further, at Kainate-type receptor, the “Affinity to Kainate-type receptor (3H-KA), IC50” value (shortened to “Affinity … IC50”) came to 7.3 µM and the “Affinity to the Kainate-type-receptor (in words)” value is recorded as “strong affinity”. In series [2], the “Affinity to the 3 sub-type receptors (in words)” value is on record as “high affinities to the 3 sub-type receptors”. The minimal effective concentration in [3] (Rattus norvegicus, Neuron) was ≥ 1 µM. Also, the “Tested Retention Time (percentage to control group), latency” value in series [4] (1 mg/kg) was 205 percentage to control group. Further, the “Tested Retention Time (percentage to control group), latency” value in series [4] (10 mg/kg, * in table: p < 0.05) is given as 184 percentage to control group. For the same molecule, the “Effect on memory dysfunction / latency (in words)” value in series [4] was “prolong the latency significantly”.
As a reminder, the LD50 is the dose at which mortality reaches 50%. On to `N[C@@H](Cc1c[nH]oc1=O)C(=O)O` [Compound 1, TAN-950A], for which, at NMDA-type receptor, the IC50 came out at 19 µM. In series [1], the IC50 worked out at 0.28 µM and the “Affinity to the Quisqualate-type-receptor (in words)” value was “strong affinity”. Further, on Kainate-type receptor, the “Affinity … IC50” value was found to be 3.6 µM and the “Affinity to the Kainate-type-receptor (in words)” value is on record as “strong affinity”. Moreover, the “Affinity to the 3 sub-type receptors (in words)” value in series [2] is “high affinities to the 3 sub-type receptors”. Besides, in [3] (Rattus norvegicus, Neuron), the minimal effective concentration is ≥ 300 µM. In addition, the minimal effective concentration in series [3] (listed as 1 (sodium salt)) is recorded as 300 µM. Also, the LD50 in “Acute toxicity in mouse” is > 4000 mg/kg. Besides, the “Conversion in aqueous solution (in words)” value in [5] (aqueous solution) is “converted mainly to TAN-950B and D, but slightly to TAN-950C and E”. Further, in series [5] (setting [6]), the “TAN-950A in resulting substance, area percentage by HPLC” value is 63.8%; the “TAN-950B in resulting substance, area percentage by HPLC” value is listed as 13.0%; the “TAN-950C in resulting substance, area percentage by HPLC” value came to 5.7%; the “TAN-950D in resulting substance, area percentage by HPLC” value came to 12.1%. In series [5] (setting [6]), the “TAN-950E in resulting substance, area percentage by HPLC” value was determined as 3.1%. The Solubility in acetone result in the series “Solubility” (acetone) is reported as “Sparingly soluble”. The Solubility in chloroform result in the series “Solubility” (chloroform) is “Sparingly soluble”. The Solubility in dimethylsulfoxide result in the series “Solubility” (dimethylsulfoxide) is given as “Soluble”. Further, the “Solubility in ethyl acetate” value in the series “Solubility” (ethyl acetate) is listed as “Sparingly soluble”. The Solubility in methanol entry in “Solubility” (methanol) is recorded as “Soluble”. For the same molecule, the Solubility in water entry in “Solubility” (water) is on record as “Soluble”.
As to `Cc1[nH]oc(=O)c1C[C@@H](N)C(=O)O` [Compound 78], the IC50 on NMDA-type receptor was found to be 68 µM; in [1] it was 3.9 µM. Also, the “Affinity to the Quisqualate-type-receptor (in words)” value in series [1] is “strong affinity”. Moreover, the “Affinity … IC50” value at Kainate-type receptor was determined as 98 µM. Moreover, in [2], the “Affinity to the 3 sub-type receptors (in words)” value is recorded as “high affinities to the 3 sub-type receptors”. Also, in [3] (Rattus norvegicus, Neuron), the minimal effective concentration was ≥ 30 µM. Further, the “Tested Retention Time (percentage to control group), latency” value is 179 percentage to control group in series [4] (1 mg/kg) and 222 percentage to control group in series [4] (10 mg/kg, * in table: p < 0.05). Besides, the “Effect on memory dysfunction / latency (in words)” value in [4] is recorded as “prolong the latency significantly”.
On to `N[C@H](Cc1c[nH]oc1=O)C(=O)O` [Compound 72], for which the values for the IC50 (at NMDA-type receptor; in [1]) were 6.2 µM and 14 µM, respectively. Further, in the series on NMDA-type receptor (summary of Table 5), the “Affinity to the NMDA-type-receptor (in words)” value is on record as “high affinity”. On Kainate-type receptor, the “Affinity … IC50” value came to 37 µM. Further, the “Affinity to the 3 sub-type receptors (in words)” value in series [2] was “high affinities to the 3 sub-type receptors”. Also, the minimal effective concentration in series [3] (Rattus norvegicus, Neuron) was ≥ 300 µM; in [3] (listed as 72 (hydrochloride)) it was 300 µM. Further, the “Tested Retention Time (percentage to control group), latency” value in series [4] (1 mg/kg) is reported as 217 percentage to control group; in series [4] (10 mg/kg, * in table: p < 0.05), 278 percentage to control group. Further, the “Effect on memory dysfunction / latency (in words)” value in series [4] is “prolong the latency significantly”.
